Holding throughout (assay type): cell-based
Assay [1] relates to Streptococcus pyogenes M808. The assay is described as follows: In vitro antibacterial activity, microbroth dilution method (CLSI method), test bacterium D (erythromycin resistant). The following applies: read-out: MIC (minimum inhibitory concentration), test bacterium D. The protocol: (§1) In vitro antibacterial activities of the compounds of the present invention against various test bacteria were measured according to the microbroth dilution method (CLSI method). Among them, the bacteria C, D and E are erythromycin resistant bacteria. The MIC values (minimum inhibitory concentration, μg/ml) for the test bacteria A and B are exemplified in Table 22.
Background: In broth dilution the organism is exposed to a series of concentrations in liquid medium.

The subject of assay [2] is Mycoplasma pneumoniae MSC04933. In words: In vitro antibacterial activity, microbroth dilution method (CLSI method), test bacterium E (erythromycin resistant). Particulars: read-out: MIC (minimum inhibitory concentration), test bacterium E. The protocol:
as §1

In assay [3] the test system is Streptococcus pneumoniae ATCC700904. In words: In vitro antibacterial activity, microbroth dilution method (CLSI method), test bacterium C (erythromycin resistant). Particulars: read-out: MIC (minimum inhibitory concentration), test bacterium C. The protocol: as §1
The subject of assay [4] is Streptococcus pneumoniae ATCC49619. In words: In vitro antibacterial activity, microbroth dilution method (CLSI method), test bacterium B. The following applies: read-out: MIC (minimum inhibitory concentration), test bacterium B. How it is done: as §1
The subject of assay [5] is Haemophilus infuenzae ATCC43095. The assay is described as follows: In vitro antibacterial activity, microbroth dilution method (CLSI method), test bacterium A. The following applies: read-out: MIC (minimum inhibitory concentration), test bacterium A. How it is done:
as §1

Converted amounts (≈) assume the structure as drawn. Where only a bound is given, the exact number is not on record here.

With `CC[C@H]1OC(=O)[C@H](C)[C@@H](O[C@H]2C[C@@](C)(OC)[C@@](O)(CN(C)CCN(C)C(C)(C)c3ccccc3OC)[C@H](C)O2)[C@H](C)[C@@H](O[C@@H]2O[C@H](C)C[C@H](N(C)C)[C@H]2O)[C@@](C)(OC)C[C@@H](C)C(=O)[C@H](C)[C@H]2C(C#N)C(=O)O[C@@]21C` (stereo partly shown) [Example 363], the MIC in assay [1] was at most 2 µg/mL; in assay [2] it was at most 0.25 µg/mL; in assay [3] it was 0.12 to 0.25 µg/mL (≈ 0.115 to 0.239 µM).
In the case of `CC[C@H]1OC(=O)[C@H](C)[C@@H](O[C@H]2C[C@@](C)(OC)[C@@](O)(CN(C)CCN(CC)CC)[C@H](C)O2)[C@H](C)[C@@H](O[C@@H]2O[C@H](C)C[C@H](N(C)C)[C@H]2O)[C@@](C)(OC)C[C@@H](C)C(=O)[C@H](C)[C@H]2N(CC3CCS(=O)(=O)C3)C(=O)O[C@]12C` (stereo partly shown) [Example154], the MIC turned out to be 0.06 µg/mL (≈ 0.0573 µM) in assay [4] and 4 µg/mL (≈ 3.82 µM) in assay [5].
For `CC[C@H]1OC(=O)[C@H](C)[C@@H](O[C@H]2C[C@@](C)(OC)[C@@](O)(CN(C)C(=O)CN(CC)CC)[C@H](C)O2)[C@H](C)[C@@H](O[C@@H]2O[C@H](C)C[C@H](N(C)C)[C@H]2O)[C@@](C)(OC)C[C@@H](C)C(=O)[C@H](C)[C@H]2NC(=O)O[C@@]21C` [Example329], the results for the MIC in assay [4] and in assay [5] were 0.03 µg/mL (≈ 0.0323 µM) and 8 µg/mL (≈ 8.61 µM), respectively.
The corresponding values for `CC[C@H]1OC(=O)[C@H](C)[C@@H](O[C@H]2C[C@@](C)(OC)[C@@](O)(CN(C)CCN(C(C)C)C(C)C)[C@H](C)O2)[C@H](C)[C@@H](O[C@@H]2O[C@H](C)C[C@H](N(C)C)[C@H]2O)[C@@](C)(OC)C[C@@H](C)C(=O)[C@H](C)[C@H]2N(CCNS(C)(=O)=O)C(=O)O[C@]12C` [Example404] are 0.03 µg/mL (≈ 0.0282 µM) and 4 µg/mL (≈ 3.76 µM).
For `CC[C@H]1OC(=O)[C@H](C)[C@@H](O[C@H]2C[C@@](C)(OC)[C@@](O)(CN(C)CCN(CC)CC)[C@H](C)O2)[C@H](C)[C@@H](O[C@@H]2O[C@H](C)C[C@H](N(C)C)[C@H]2O)[C@@](C)(OC)C[C@@H](C)C(=O)[C@H](C)[C@H]2NC(=O)O[C@@]21C` [Example299] the same measures were 0.03 µg/mL (≈ 0.0328 µM) and 4 µg/mL (≈ 4.37 µM).
Regarding `CC[C@H]1OC(=O)[C@H](C)[C@@H](O[C@H]2C[C@@](C)(OC)[C@@](O)(CN(C)CCN(C(C)C)C(C)C)[C@H](C)O2)[C@H](C)[C@@H](O[C@@H]2O[C@H](C)C[C@H](N(C)C)[C@H]2O)[C@@](C)(OC)C[C@@H](C)C(=O)[C@H](C)[C@H]2N(CCOS(N)(=O)=O)C(=O)O[C@]12C` [Example456], the MIC in assay [4] stood at 0.03 µg/mL (≈ 0.0281 µM); in assay [5], 2 µg/mL (≈ 1.88 µM).
`CC[C@H]1OC(=O)[C@H](C)[C@@H](O[C@H]2C[C@@](C)(OC)[C@@](O)(CN(C)CCN3C4CCC3CC4)[C@H](C)O2)[C@H](C)[C@@H](O[C@@H]2O[C@H](C)C[C@H](N(C)C)[C@H]2O)[C@@](C)(OC)C[C@@H](C)C(=O)[C@H](C)[C@H]2N(CCNS(C)(=O)=O)C(=O)O[C@]12C` [Example446]: the MIC is 0.03 µg/mL (≈ 0.0283 µM) in assay [4] and 4 µg/mL (≈ 3.77 µM) in assay [5].
Consider `CC[C@H]1OC(=O)[C@H](C)[C@@H](O[C@H]2C[C@@](C)(OC)[C@@](O)(CN(C)CCN(CC)C(=O)OC)[C@H](C)O2)[C@H](C)[C@@H](O[C@@H]2O[C@H](C)C[C@H](N(C)C)[C@H]2O)[C@@](C)(OC)C[C@@H](C)C(=O)[C@H](C)[C@H]2NC(=O)O[C@@]21C` [Example264], for which the MIC in assay [4] was determined as 0.06 µg/mL (≈ 0.0635 µM); in assay [5] it was 8 µg/mL (≈ 8.46 µM).
As for `CC[C@H]1OC(=O)[C@H](C)[C@@H](O[C@H]2C[C@@](C)(OC)[C@@](O)(CN(C)CCN(C)C(C)(C)c3ccccc3OC)[C@H](C)O2)[C@H](C)[C@@H](O[C@@H]2O[C@H](C)C[C@H](N(C)C)[C@H]2O)[C@@](C)(OC(N)=O)C[C@@H](C)C(=O)[C@H](C)[C@H]2NC(=O)O[C@@]21C` [Example342], the MIC in assay [4] was found to be 0.06 µg/mL (≈ 0.0571 µM); in assay [5] it was 4 µg/mL (≈ 3.81 µM).
On to `CC[C@H]1OC(=O)[C@H](C)[C@@H](O[C@H]2C[C@@](C)(OC)[C@@](O)(CN(C)CCN(C)C)[C@H](C)O2)[C@H](C)[C@@H](O[C@@H]2O[C@H](C)C[C@H](N(C)C)[C@H]2O)[C@@](C)(OC)C[C@@H](C)C(=O)[C@H](C)[C@H]2N(C)C(=O)O[C@]12C` [Example183], for which the MIC in assay [4] turned out to be 0.016 µg/mL (≈ 0.0178 µM); in assay [5] it was 8 µg/mL (≈ 8.88 µM).
With `CC[C@H]1OC(=O)[C@H](C)[C@@H](O[C@H]2C[C@@](C)(OC)[C@@](O)(CN(C)CCN(C(C)C)C(C)C)[C@H](C)O2)[C@H](C)[C@@H](O[C@@H]2O[C@H](C)C[C@H](N(C)C)[C@H]2O)[C@@](C)(OC)C[C@@H](C)C(=NO)[C@H](C)[C@H]2N(CCNS(C)(=O)=O)C(=O)O[C@]12C` [Example 458], the MIC is 4 to 8 µg/mL (≈ 3.71 to 7.41 µM) in assay [1], 0.06 µg/mL (≈ 0.0556 µM) in assay [4], 4 µg/mL (≈ 3.71 µM) in assay [5] and 0.12 to 0.25 µg/mL (≈ 0.111 to 0.232 µM) in assay [3].
As to `CC[C@H]1OC(=O)[C@H](C)[C@@H](O[C@H]2C[C@@](C)(OC)[C@@](O)(CN(C)CCN(C)C)[C@H](C)O2)[C@H](C)[C@@H](O[C@@H]2O[C@H](C)C[C@H](N(C)C)[C@H]2O)[C@@](C)(OC(=O)NC/C=C/c2ccc3ncccc3c2)C[C@@H](C)C(=O)[C@H](C)[C@H]2NC(=O)O[C@@]21C` [Example348], the MIC in assay [4] came out at 0.03 µg/mL (≈ 0.0277 µM); in assay [5] it was 16 µg/mL (≈ 14.8 µM).
The corresponding values for `CC[C@H]1OC(=O)[C@H](C)[C@@H](O[C@H]2C[C@@](C)(OC)[C@@](O)(CN(C)CCN(CC)CC)[C@H](C)O2)[C@H](C)[C@@H](O[C@@H]2O[C@H](C)C[C@H](N(C)C)[C@H]2O)[C@@](C)(OC)C[C@@H](C)C(=O)[C@H](C)[C@H]2N(O)C(=O)O[C@]12C` [Example170] are 0.03 µg/mL (≈ 0.0322 µM) and 4 µg/mL (≈ 4.3 µM).
The corresponding values for `CC[C@H]1OC(=O)[C@H](C)[C@@H](O[C@H]2C[C@@](C)(OC)[C@@](O)(CN(CCOC)CCN(CC)CC)[C@H](C)O2)[C@H](C)[C@@H](O[C@@H]2O[C@H](C)C[C@H](N(C)C)[C@H]2O)[C@@](C)(OC)C[C@@H](C)C(=O)[C@H](C)[C@H]2N(CCNS(C)(=O)=O)C(=O)O[C@]12C` [Example443] are 0.03 µg/mL (≈ 0.0278 µM) and 4 µg/mL (≈ 3.7 µM).
For `CC[C@H]1OC(=O)[C@H](C)[C@@H](O[C@H]2C[C@@](C)(OC)[C@@](O)(CN(C)CCN(CC)C3CCC3)[C@H](C)O2)[C@H](C)[C@@H](O[C@@H]2O[C@H](C)C[C@H](N(C)C)[C@H]2O)[C@@](C)(OC)C[C@@H](C)C(=O)[C@H](C)[C@H]2N(CCCS(C)(=O)=O)C(=O)O[C@]12C` [Example418] the same measures were 0.03 µg/mL (≈ 0.0283 µM) and 4 µg/mL (≈ 3.77 µM).
Consider `CC[C@H]1OC(=O)[C@H](C)[C@@H](O[C@H]2C[C@@](C)(OC)[C@@](O)(CN(C)CCN(C)C(C)(C)c3ccccc3OC)[C@H](C)O2)[C@H](C)[C@@H](O[C@@H]2O[C@H](C)C[C@H](N(C)C)[C@H]2O)[C@@](C)(OC)C[C@@H](C)C(=O)[C@H](C)[C@H]2C(C#N)C(=O)O[C@@]21C` (stereo partly shown) [Example363], for which the figures for the MIC in assay [4] and in assay [5] were 0.06 µg/mL (≈ 0.0574 µM) and 8 µg/mL (≈ 7.65 µM), respectively.
For `CC[C@H]1OC(=O)[C@H](C)[C@@H](O[C@H]2C[C@@](C)(OC)[C@@](O)(CN(C)CCN(C)C)[C@H](C)O2)[C@H](C)[C@@H](O[C@@H]2O[C@H](C)C[C@H](N(C)C)[C@H]2O)[C@@](C)(OC)C[C@@H](C)C(=O)[C@H](C)[C@H]2C(SCCCn3cnc4c(N)ncnc43)C(=O)O[C@@]21C` (stereo partly shown) [Example364] the same measures were 0.03 µg/mL (≈ 0.0274 µM) and 8 µg/mL (≈ 7.32 µM).

The values above are taken from patent US9139609B2, “C-4″ position substituted macrolide derivative” (priority 2011, dated 2015).
